16 compounds from ChEMBL document CHEMBL1147552, “Novel CCR1 antagonists with improved metabolic stability” (Bioorg Med Chem Lett, 2004) can be followed below.

≈ marks a conversion by molar mass, not a printed value.

The species entered for one series is Homo sapiens. The note with it: Liver, Microsome.
The target of series [1] is T1, C-C chemokine receptor type 1 (Homo sapiens, UniProt P32246).
T1 sequence (P32246 whole entry): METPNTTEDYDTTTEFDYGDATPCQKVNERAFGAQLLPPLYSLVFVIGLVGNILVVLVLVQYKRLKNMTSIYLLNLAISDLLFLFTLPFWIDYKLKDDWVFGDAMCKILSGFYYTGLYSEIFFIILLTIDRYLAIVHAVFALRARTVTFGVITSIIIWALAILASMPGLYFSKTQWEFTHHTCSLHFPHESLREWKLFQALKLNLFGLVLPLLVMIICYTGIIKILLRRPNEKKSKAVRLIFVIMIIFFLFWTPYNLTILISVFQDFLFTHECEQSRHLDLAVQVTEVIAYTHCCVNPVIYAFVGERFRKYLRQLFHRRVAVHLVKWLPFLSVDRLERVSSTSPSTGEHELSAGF
Nature of the series: Inhibition of CCL3 binding to C-C chemokine receptor type 1.

The nature of series [2]: Volume of distribution of compound was determined in dog. The note with it: in vivo.
A short description of series [3]: Plasma clearance of compound was determined in dog.
Series [4] is described as follows: Elimination Half-life of compound was determined in dog. The note with it: in vivo.
A short description of series [5]: Oral bioavailability in monkey. The note with it: cercopithecidae, in vivo.
A short description of series [6]: Volume of distribution of compound was determined in monkey. The note with it: cercopithecidae, in vivo.
A short description of series [7]: Plasma clearance of compound was determined in monkey. The note with it: cercopithecidae.
The nature of series [8]: Aqueous solubility of compound was determined.

Description for Homo sapiens: In vitro oxidative metabolic stability measured by the rate of drug consumption in human liver microsomes as intrinsic clearance values

Compound `CN1CCN(C(=O)C(CCC(C)(C)F)C[C@H](O)[C@H](Cc2ccccc2)NC(=O)c2cnc3ccccc3n2)CC1` (stereo partly specified) came in with a CL (mL.min-1.kg-1) in the series filed under Homo sapiens of 647. The IC50 in [1] stood at 5600 nM.
In the series listed under Homo sapiens, `NC(=O)C(C[C@H](O)[C@H](Cc1ccccc1)NC(=O)c1cnc2ccccc2n1)C1CCCCC1` (stereo partly specified) came in with a CL (mL.min-1.kg-1) of 242. The same compound showed an IC50 in series [1] of 8 nM.
As for `CC(C)(F)CCC(C[C@H](O)[C@H](Cc1ccccc1)NC(=O)c1cnc2ccccc2n1)C(=O)N1CCCC1` (stereo partly specified), in series [1], the IC50 was 2320 nM.
In the case of `CC(C)(F)CC[C@H](C[C@H](O)[C@H](Cc1ccccc1)NC(=O)c1cnc2ccccc2n1)C(N)=O`, in [1], the IC50 stood at 9 nM.
`NC(=O)C(C[C@H](O)[C@H](Cc1ccccc1)NC(=O)c1cnc2ccccc2n1)C1CCOCC1` (stereo partly specified): the IC50 in [1] was 3460 nM.
Turning to `CC(C)(O)CCC(C[C@H](O)[C@H](Cc1ccc(F)cc1)NC(=O)c1cnc2ccccc2n1)C(N)=O` (stereo partly specified), the IC50 in series [1] is greater than 25000 nM.
For `NC(=O)C(C[C@H](O)[C@H](Cc1ccccc1)NC(=O)c1cnc2ccccc2n1)C1(O)CCC(F)(F)CC1` (stereo partly specified), in the series listed under Homo sapiens, the CL (mL.min-1.kg-1) was 6.4. The IC50 in [1] came to 56 nM.
For the compound `CC(C)(F)CCC(C[C@H](O)[C@H](Cc1ccccc1)NC(=O)c1cnc2ccccc2n1)C(=O)NO` (stereo partly specified), the IC50 in series [1] turned out to be 27 nM.
On to `CC(C)(F)CCC(C[C@H](O)[C@H](Cc1ccccc1)NC(=O)c1cnc2ccccc2n1)C(=O)NCc1ccccc1` (stereo partly specified), for which the IC50 in series [1] amounted to 850 nM.
In series [1], `CCNC(=O)C(CCC(C)(C)F)C[C@H](O)[C@H](Cc1ccccc1)NC(=O)c1cnc2ccccc2n1` (stereo partly specified) returned an IC50 of 75 nM.
`NC(=O)C(C[C@H](O)[C@H](Cc1ccccc1)NC(=O)c1cnc2ccccc2n1)C1CCC(F)(F)CC1` (stereo partly specified) had an IC50 in [1] of 20 nM.
Take `CC(C)(O)CCC(C[C@H](O)[C@H](Cc1ccccc1F)NC(=O)c1cnc2ccccc2n1)C(N)=O` (stereo partly specified): the CL (mL.min-1.kg-1) in the series listed under Homo sapiens worked out at 16.5. The same compound returned an IC50 in series [1] of 52 nM.
For `O=C(N[C@@H](Cc1ccccc1)[C@@H](O)CC(C(=O)NO)C1CCC(F)(F)CC1)c1cnc2ccccc2n1` (stereo partly specified), the Vd was found to be 1.3 L/kg in series [2] and 1.8 L/kg in series [6]. For the same compound, the clearance in [3] worked out at 38 mL/min/kg; in series [7] it was 33 mL/min/kg. The CL (mL.min-1.kg-1) in the series filed under Homo sapiens was found to be 6.1. This compound also had a half-life in [4] of 30 min. In series [5], the bioavailability is less than 1.1%. Further, in series [1], the IC50 was found to be 7 nM. In series [8], this compound registered a solubility of 12 µg/mL (≈ 23.4 µM).
Consider `CC(C)(O)CC[C@H](C[C@H](O)[C@H](Cc1ccccc1)NC(=O)c1cnc2ccccc2n1)C(N)=O`, for which the CL (mL.min-1.kg-1) in the series listed under Homo sapiens turned out to be 4.9. The compound further returned an IC50 in series [1] of 580 nM.
In turn, `NC(=O)C(C[C@H](O)[C@H](Cc1ccccc1)NC(=O)c1cnc2ccccc2n1)C1(O)CCCCC1` (stereo partly specified) had a CL (mL.min-1.kg-1) in the series filed under Homo sapiens of 47.7. The same compound had an IC50 in [1] of 54 nM.
Compound `CC(C)(F)CCC(C[C@H](O)[C@H](Cc1ccccc1)NC(=O)c1cnc2ccccc2n1)C(=O)NN` (stereo partly specified) registered a CL (mL.min-1.kg-1) in the series listed under Homo sapiens of 32.7. The same compound came in with an IC50 in [1] of 7 nM.
